Data from patent publication US8053439B2, “Benzophenone derivatives useful for inhibiting formation of microtubule” (Chong Kun Dang Pharmaceutical Corp., priority 2006, dated 2011).

These compounds were tested on HL60 cells (assay: Inhibition effect of HL60 cell line growth (MTT, 3 days)). Conditions: Homo sapiens, HL-60, 72 h, read-out: HL60 Growth Inhibition.
Assay type: cell-based
Experimental: 1. Inhibition Effect of HL60 Cell Line Growth
A 10% FBS-contained RPMI1640 badge was used for culturing HL60 cells. The test substance was prepared by dissolving in DMSO to a concentration of 10 mg/ml, and continuously diluting with PBS to a final concentration of 100 μg/ml to 0.03 μg/ml. In a 96-well microplate, 180 μl of the badge containing 6.0×10^4 cells/ml of cells and 20 μl of continuously diluted test substance were added. The mixture was cultured at 37° C. with 5% CO2 atmosphere for 3 days. After completion of the cultivation, 50 μl of a solution of 1.25 mg/ml MTT (3-(4,5-dimethylthiazol-2-yl)-2,5-diphenyltetrazolium bromide) dissolved in PBS was added to all wells, and the resulting mixture was reacted at 37° C. for 3 hours. Thus formed formazan crystals were dissolved in 150 μl of DMSO, and an absorbance was measured at 570 nm.

SMILES	IC50
COc1ccc(-c2cccnc2)cc1C(=O)c1cc(OC)c(OC)c(OC)c1 [Compound 200, (2-methoxy-5-(pyridin-3-yl)phenyl)(3,4,5-trimethoxyphenyl)methanone]	0.13 µM
COc1ccc(-c2ncco2)cc1C(=O)c1cc(OC)c(OC)c(OC)c1 [Compound 590, (2-methoxy-5-(oxazol-2-yl)phenyl)(3,4,5-trimethoxyphenyl)methanone]	0.01 µM
COc1cc(C(=O)c2ccc(-c3cccnc3)cc2-n2cncn2)cc(OC)c1OC [Compound 511, (4-pyridin-3-yl-2-[1,2,4]thiazol-1-yl-phenyl)(3,4,5-trimethoxyphenyl)methanone]	0.1 µM
COc1ccc(-c2nccs2)cc1C(=O)c1cc(OC)c(OC)c(OC)c1 [Compound 583, (2-methoxy-5-(thiazol-2-yl)phenyl)(3,4,5-trimethoxyphenyl)methanone]	0.01 µM
COc1cc(C(=O)c2cc(-c3nccs3)ccc2N)cc(OC)c1OC [Compound 278, (2-amino-5-(thiazol-2-yl)phenyl)(3,4,5-trimethoxyphenyl)methanone]	0.03 µM

Same assay, conditions: Homo sapiens, HL-60, 72 h; HL60 cells, 3 days culture, MTT, absorbance 570 nm; read-out: HL60 Growth Inhibition

SMILES	IC50
COc1ccc(-c2csc(C)n2)cc1C(=O)c1cc(OC)c(OC)c(OC)c1 [Compound 595, (2-methoxy-5-(methylthiazol-4-yl)phenyl)(3,4,5-trimethoxyphenyl)methanone]	0.12 µM
COc1cc(C(=O)c2cc(-c3csc(C)n3)ccc2-n2cncn2)cc(OC)c1OC [Compound 596, (5-(2-methylthiazol-4-yl)-2-(1H-1,2,4-triazol-1-yl)phenyl)(3,4,5-trimethoxyphenyl)methanone]	0.23 µM
O=C(c1ccc(-c2ccco2)cc1-n1cncn1)c1c(F)c(F)c(F)c(F)c1F [Compound 446, (4-(furan-2-yl)-2-(1H-1,2,4,-triazol-1-yl)phenyl)(pentafluorophenyl)methanone]	0.17 µM
COc1cc(C(=O)c2ccc(-c3nccs3)cc2OS(C)(=O)=O)cc(OC)c1OC [Compound 484, methanesulfonic acid 5-(thiazol-2-yl)-2-(3,4,5-trimethoxybenzoyl)phenyl ester]	4.24 µM
COc1ccc(-c2ccc(OC)c(C(=O)c3cc(OC)c(OC)c(OC)c3)c2)cc1 [Compound 213, (4,4′-dimethoxybiphenyl-3-yl)(3,4,5-trimethoxyphenyl)methanone]	0.137 µM
COc1cc(C(=O)c2cccc(-c3ccsc3)c2)cc(OC)c1OC [Compound 568, (3-(thiophen-3-yl)phenyl)(3,4,5-trimethoxyphenyl)methanone]	0.36 µM
COc1cc(C(=O)c2cc(-c3cccs3)ccc2NC(C)=O)cc(OC)c1OC [Compound 279, N-(4-(thiophen-2-yl)-2-(3,4,5-trimethoxybenzoyl)phenyl)acetamide]	0.13 µM
COc1cc(C(=O)c2ccc(-n3cncn3)cc2N)cc(OC)c1OC [Compound 272, (2-amino-4-(1H-1,2,4-triazol-1-yl)phenyl)(3,4,5-trimethoxyphenyl)methanone]	1.34 µM
COc1ccc(-c2ccsc2)cc1C(=O)c1cc(OC)c(OC)c(OC)c1 [Compound 588, (2-methoxy-5-(thiophen-3-yl)phenyl)(3,4,5-trimethoxyphenyl)methanone]	0.12 µM
COc1cc(C(=O)c2cc(-c3ncco3)ccc2N)cc(OC)c1OC [Compound 289, (2-amino-5-(oxazol-2-yl)phenyl)(3,4,5-trimethoxyphenyl)methanone]	0.007 µM
COc1cc(C(=O)c2cc(-c3ccco3)ccc2NC(C)=O)cc(OC)c1OC [Compound 231, N-(4-(furan-2-yl)-2-(3,4,5-trimethoxybenzoyl)phenyl)acetamide]	0.12 µM
COc1cc(C(=O)c2cc(-c3ccco3)ccc2F)cc(OC)c1OC [Compound 327, (2-fluoro-5-(furan-2-yl)phenyl)(3,4,5-trimethoxyphenyl)methanone]	0.09 µM
COc1cc(C(=O)c2ccc(-c3cccc(N)c3)cc2-n2cncn2)cc(OC)c1OC [Compound 525, (3′-amino-3-(1H-1,2,4-triazol-1-yl)biphenyl-4-yl)(3,4,5-trimethoxyphenyl)methanone]	0.09 µM
C=CCc1cc(C(=O)c2cc(-c3ccco3)ccc2OC)cc(OC)c1O [Compound 269, (3-allyl-4-hydroxy-5-methoxyphenyl)(5-(furan-2-yl)-2-methoxyphenyl)methanone]	1.69 µM
COc1cc(C(=O)c2cc(-c3ccco3)ccc2N)cc(OC)c1OC [Compound 225, (2-amino-5-(furan-2-yl)phenyl)(3,4,5-trimethoxyphenyl)methanone]	0.058 µM
COc1cc(C(=O)c2cc(-c3cccc(NS(C)(=O)=O)c3)ccc2F)cc(OC)c1OC [Compound 486, N-[4′-fluoro-3′-(3,4,5-trimethoxybenzoyl)-biphenyl-3-yl]-methanesulfonamide]	0.16 µM
COc1cc(C(=O)c2cc(-c3nccs3)ccc2C(O)CO)cc(OC)c1OC (stereo not shown) [Compound 372, (2-(1,2-dihydroxyethyl)-5-(thiazol-2-yl)phenyl)(3,4,5-trimethoxyphenyl)methanone]	0.11 µM
COc1cc(C(=O)c2cc(-c3nccs3)ccc2NC(C)=O)cc(OC)c1OC [Compound 277, N-(4-(thiazol-2-yl)-2-(3,4,5-trimethoxybenzoyl)phenyl)acetamide]	0.11 µM

SMILES	IC50
COc1cc(C(=O)c2ccc(-c3csc(N)n3)cc2)cc(OC)c1OC [Compound 571, (4-(2-aminothiazol-4-yl)phenyl)(3,4,5-trimethoxyphenyl)methanone]	0.11 µM
COC(=O)c1ccc(-c2nccs2)cc1C(=O)c1cc(OC)c(OC)c(OC)c1 [Compound 374, 4-(thiazol-2-yl)-2-(3,4,5-trimethoxybenzoyl)benzoic acid methyl ester]	0.1 µM
COc1cc(C(=O)c2cc(-c3csc(N)n3)ccc2N)cc(OC)c1OC [Compound 297, (2-amino-5-(2-aminothiazol-4-yl)phenyl)(3,4,5-trimethoxyphenyl)methanone]	0.035 µM
COc1cc(C(=O)c2cc(-c3nccs3)ccc2NS(C)(=O)=O)cc(OC)c1OC [Compound 308, N-(4-(thiazol-2-yl)-2-(3,4,5-trimethoxybenzoyl)phenyl)methanesulfonamide]	0.19 µM
COc1cc(C(=S)c2cc(-c3ccco3)ccc2-n2cncn2)cc(OC)c1OC [Compound 399, (5-(furan-2-yl)-2-(1H-1,2,4-triazol-1-yl)phenyl)(3,4,5-trimethoxyphenyl)methanethione]	0.11 µM
COC(=O)Nc1nc(-c2ccc(C(=O)c3cc(OC)c(OC)c(OC)c3)c(-n3cncn3)c2)cs1 [Compound 561, methyl 4-(3-(1H-1,2,4-triazol-1-yl)-4-(3,4,5-trimethoxybenzoyl)phenyl)thiazol-2-yl carbamate]	0.32 µM
COc1cc(C(=O)c2cc(-c3ccco3)ccc2-n2ccnn2)cc(OC)c1OC [Compound 379, (5-(furan-2-yl)-2-(1H-1,2,3,-triazol-1-yl)phenyl)(3,4,5-trimethoxyphenyl)methanone]	0.11 µM
COc1cc(C(=O)c2ccc(-c3ncco3)cc2-n2cncn2)cc(OC)c1OC [Compound 602, (4-(oxazol-2-yl)-2-(1H-1,2,4-triazol-1-yl)phenyl)(3,4,5-trimethoxyphenyl)methanone]	0.17 µM
COc1cc(C(=O)c2ccc(-c3ccsc3)cc2-n2cncn2)cc(OC)c1OC [Compound 462, (4-(thiophen-3-yl)-2-(1H-1,2,4,-triazol-1-yl)phenyl)(3,4,5-trimethoxyphenyl)methanone]	0.033 µM
CCS(=O)(=O)c1cccc(-c2ccc(C(=O)c3cc(OC)c(OC)c(OC)c3)c(-n3cncn3)c2)c1 [Compound 479, (3′-ethanesulfonyl-3-[1,2,4]triazol-1-yl-biphenyl-4-yl)(3,4,5-trimethoxyphenyl)methanone]	0.025 µM
COc1cc(C(=O)c2cc(-c3nccs3)ccc2-n2cnnn2)cc(OC)c1OC [Compound 401, (2-(1H-tetrazol-1-yl)-5-(thiazol-2-yl)phenyl)(3,4,5-trimethoxyphenyl)methanone]	0.03 µM
COc1cc(C(=O)c2cc(-c3ccccn3)ccc2NS(C)(=O)=O)cc(OC)c1OC [Compound 335, N-(4-(pyridin-2-yl)-2-(3,4,5-trimethoxybenzoyl)phenyl)methanesulfonamide]	0.22 µM
COc1cc(C(=O)c2ccc(-c3csc(N)n3)cc2-n2cncn2)cc(OC)c1OC(F)F [Compound 547, (4-(2-aminothiazol-4-yl)-2-(1H-1,2,4-triazol-1-yl)phenyl)(4-(difluoromethoxy)-3,5-dimethoxyphenyl)methanone]	0.03 µM
COc1cc(C(=O)c2ccc(-c3cccc(NS(C)(=O)=O)c3)cc2-n2cncn2)cc(OC)c1OC [Compound 476, N-(3′-[1,2,4]triazol-1-yl-4′-(3,4,5-trimethoxybenzoyl)biphenyl-3-yl)methanesulfonamide]	0.025 µM
COc1cc(C(=O)c2ccc(-c3cncnc3)cc2-n2cncn2)cc(OC)c1OC [Compound 455, (4-(pyrimidin-5-yl)-2-(1H-1,2,4,-triazol-1-yl)phenyl)(3,4,5-trimethoxyphenyl)methanone]	3.1 µM
COc1cc(C(=O)c2cc(-c3nccs3)cnc2-n2cncn2)cc(OC)c1OC [Compound 410, (5-(thiazol-2-yl)-2-(1H-1,2,4-triazol-1-yl)pyridin-3-yl)(3,4,5-trimethoxyphenyl)methanone]	0.1 µM
COc1cc(C(=O)c2ccc(-c3csc(NC(C)=O)n3)cc2-n2cncn2)cc(OC)c1OC [Compound 560, N-(4-(3-(1H-1,2,4-triazol-1-yl)-4-(3,4,5-trimethoxybenzoyl)phenyl)thiazol-2-yl)acetamide]	0.09 µM
